In PubChem BioAssay AID1259407 (Chemical Carcinogenesis Research Information System (CCRIS), 2018):
The source made the active and inactive calls. How the calls were made is not given here.

Tested on: CCRIS mutagenicity, Ames/micronucleus/aberration tests
Assay: CCRIS mutagenicity studies
[1] = Test System: AMES SALMONELLA TYPHIMURIUM, Strain/Indicator: TA98, Metabolic Activation: NONE, Method: STANDARD PLATE
[2] = Test System: AMES SALMONELLA TYPHIMURIUM, Strain/Indicator: TA100, Metabolic Activation: NONE, Method: PREINCUBATION
[3] = Test System: AMES SALMONELLA TYPHIMURIUM, Strain/Indicator: TA100, Metabolic Activation: RAT, LIVER, S-9, AROCLOR 1254, Method: STANDARD PLATE

`O=[N+]([O-])C1=Cc2cccc3cccc1c23` was tested, and the mutagenic call [1] was “active; positive”.

In the case of `CC1(c2ccc([N+](=O)[O-])cc2)CO1` (stereo not drawn), the mutagenic call [2] is reported as “active; positive”.

In the case of `CC1(C(Cl)Cl)C2[C@@H](Cl)[C@H](Cl)C1(C(Cl)Cl)[C@@H](Cl)[C@@H]2Cl` (stereo partly drawn), the mutagenic call [2] is reported as “inactive; negative”.

With `Cc1cc(O)cc2oc(=O)c3c(O)cc(O)cc3c12` the mutagenic call [1] was “inactive; negative”, the mutagenic call (Test System: AMES SALMONELLA TYPHIMURIUM, Strain/Indicator: TA98, Metabolic Activation: RAT LIVER S-9, AROCLOR 1254, Method: STANDARD PLATE) was “inactive; negative” and the mutagenic call (Test System: AMES SALMONELLA TYPHIMURIUM, Strain/Indicator: TA98, Metabolic Activation: RAT, LIVER, S-9, AROCLOR 1254, Method: STANDARD PLATE) was “inactive; negative”. For the same molecule, the mutagenic call (Test System: AMES SALMONELLA TYPHIMURIUM, Strain/Indicator: TA100, Metabolic Activation: NONE, Method: STANDARD PLATE) was “inactive; negative”, the mutagenic call (Test System: AMES SALMONELLA TYPHIMURIUM, Strain/Indicator: TA100, Metabolic Activation: RAT LIVER S-9, AROCLOR 1254, Method: STANDARD PLATE) was “inactive; negative” and the mutagenic call [3] was “inactive; negative”. For the same molecule, the mutagenic call (Test System: Ames Salmonella typhimurium, Strain/Indicator: TA97, Metabolic Activation: None, Method: Standard plate) was “inactive; negative. nitrosation did not increase mutagenic activity”, the mutagenic call (Test System: Ames Salmonella typhimurium, Strain/Indicator: TA97, Metabolic Activation: Rat, Liver, S-9, Aroclor 1254 (10%), Method: Standard plate) was “inactive; negative. nitrosation did not increase mutagenic activity” and the mutagenic call (Test System: Ames Salmonella typhimurium, Strain/Indicator: TA102, Metabolic Activation: None, Method: Standard plate) was “active; positive. nitrosation led to mutagenic product”. For the same molecule, the mutagenic call (Test System: Ames Salmonella typhimurium, Strain/Indicator: TA102, Metabolic Activation: Rat, Liver, S-9, Aroclor 1254 (10%), Method: Standard plate) was “active; positive. nitrosation led to mutagenic product”, the mutagenic call (Test System: Ames Salmonella typhimurium, Strain/Indicator: TA104, Metabolic Activation: None, Method: Standard plate) was “inactive; negative. nitrosation did not increase mutagenic activity” and the mutagenic call (Test System: Ames Salmonella typhimurium, Strain/Indicator: TA104, Metabolic Activation: Rat, Liver, S-9, Aroclor 1254 (10%), Method: Standard plate) was “inactive; negative. nitrosation did not increase mutagenic activity”.

With `O[C@@H]1C=Cc2c(ccc3cc4c(ccc5ccccc54)cc23)[C@H]1O` the mutagenic call [3] was “active; positive”.

`CC1CS1` (stereo not drawn) was tested, and the mutagenic call (Test System: AMES SALMONELLA TYPHIMURIUM, Strain/Indicator: TA98, Metabolic Activation: HAMSTER, LIVER, S-9, AROCLOR 1254, Method: PREINCUBATION) was “inactive; negative”, the mutagenic call (Test System: AMES SALMONELLA TYPHIMURIUM, Strain/Indicator: TA98, Metabolic Activation: NONE, Method: PREINCUBATION) was “inactive; negative” and the mutagenic call (Test System: AMES SALMONELLA TYPHIMURIUM, Strain/Indicator: TA98, Metabolic Activation: RAT, LIVER, S-9, AROCLOR 1254, Method: PREINCUBATION) was “inactive; negative”. For the same molecule, the mutagenic call (Test System: AMES SALMONELLA TYPHIMURIUM, Strain/Indicator: TA100, Metabolic Activation: HAMSTER, LIVER, S-9, AROCLOR 1254, Method: PREINCUBATION) was “inactive; negative”, the mutagenic call [2] was “inactive; negative” and the mutagenic call (Test System: AMES SALMONELLA TYPHIMURIUM, Strain/Indicator: TA100, Metabolic Activation: RAT, LIVER, S-9, AROCLOR 1254, Method: PREINCUBATION) was “inactive; negative”. For the same molecule, the mutagenic call (Test System: AMES SALMONELLA TYPHIMURIUM, Strain/Indicator: TA1535, Metabolic Activation: HAMSTER, LIVER, S-9, AROCLOR 1254, Method: PREINCUBATION) was “inactive; negative”, the mutagenic call (Test System: AMES SALMONELLA TYPHIMURIUM, Strain/Indicator: TA1535, Metabolic Activation: NONE, Method: PREINCUBATION) was “inactive; negative” and the mutagenic call (Test System: AMES SALMONELLA TYPHIMURIUM, Strain/Indicator: TA1535, Metabolic Activation: RAT, LIVER, S-9, AROCLOR 1254, Method: PREINCUBATION) was “inactive; negative”. For the same molecule, the mutagenic call (Test System: AMES SALMONELLA TYPHIMURIUM, Strain/Indicator: TA1537, Metabolic Activation: HAMSTER, LIVER, S-9, AROCLOR 1254, Method: PREINCUBATION) was “inactive; negative”, the mutagenic call (Test System: AMES SALMONELLA TYPHIMURIUM, Strain/Indicator: TA1537, Metabolic Activation: NONE, Method: PREINCUBATION) was “inactive; negative” and the mutagenic call (Test System: AMES SALMONELLA TYPHIMURIUM, Strain/Indicator: TA1537, Metabolic Activation: RAT, LIVER, S-9, AROCLOR 1254, Method: PREINCUBATION) was “inactive; negative”. The mutagenic call (Test System: AMES SALMONELLA TYPHIMURIUM, Strain/Indicator: TA1538, Metabolic Activation: HAMSTER, LIVER, S-9, AROCLOR 1254, Method: PREINCUBATION) was “inactive; negative”, the mutagenic call (Test System: AMES SALMONELLA TYPHIMURIUM, Strain/Indicator: TA1538, Metabolic Activation: NONE, Method: PREINCUBATION) was “inactive; negative” and the mutagenic call (Test System: AMES SALMONELLA TYPHIMURIUM, Strain/Indicator: TA1538, Metabolic Activation: RAT, LIVER, S-9, AROCLOR 1254, Method: PREINCUBATION) was “inactive; negative”. For the same molecule, the mutagenic call (Test System: MOUSE LYMPHOMA, Strain/Indicator: L5178Y (TK+/TK-), Metabolic Activation: NONE, Method: SUSPENSION/PLATE) was “active; positive. reevaluation of results: positive” and the mutagenic call (Test System: Mouse lymphoma, Strain/Indicator: L5178Y (tk+/tk-), Metabolic Activation: Rat, Liver, S-9, Aroclor 1254, Method: Suspension/plate) was “active; equivocal (previous evaluation positive)”.
